Reference: patent publication US4301313A, “Halogenated ethynyl biphenyls” (Eli-Lilly and Company, priority 1974, dated 1981)

Columns and labels:
[1] = analgesic activity, acetic acid-induced writhing; type: in vivo, mouse (albino male); conditions: mouse, p.o., dose reducing writhing frequency by 50%; 30, 90, 180 minutes after administration
Procedure: Representative compounds were also evaluated for analgesic activity. The evaluation was conducted by using acetic acid-induced writhing in mice as the pain model. Clinically effective analgesis are effective when tested in this model: see Koster et al., "Acetic Acid for Analgesic Screening," 18 Fed. Proc. 412 (1959).
In a method similar to that reported by Koster et al., standard strain albino male mice weighing 20-22 grams were fasted overnight. The respective compound or vehicle (as control) was administered by gastric lavage (p.o.). Each compound was administered in an aqueous suspension of 1% methylcellulose in water. […] At 30, 90, and 180 minutes after administration, writhing was induced by the intraperitoneal administration of 55 mg./kg. of acetic acid (0.55%). Each treatment group consisted of 5 mice and separate groups were examined at each observation time. The total number of writhes for the treatment group were counted in a 10-minute observation period starting 5 minutes after the acetic acid administration. The treatment totals were compared to controls and a percent inhibition calculated as follows: [formula] […] An ED50, which represented the dose that would reduce the writhing frequency by 50%, was estimated from a dose-reponse curve of three or more points. A dose range was reported if only two points were availale for the dose response curve and they bracketed the 50% level. If data was available at 100 mg./kg., only, then the estimated ED50 was reported simply as less than 100 (<100).

[2] = carrageenin-induced hind paw inflammation; type: in vivo; conditions: Rattus norvegicus
Procedure: Representative compounds were also evaluated for anti-inflammatory activity in the test method described by C. A. Winter at 111 Proc. Soc. Exp. Biol. Med., 544 (1962). In this method, inflammation is created by injecting carrageenin into the hind paw of rats. Test compounds are administered prior to injection to determine percent inhibition of the subsequent inflammation, in comparison with control animals.

[3] = ultraviolet-induced erythema blocking test, oral (modified Winder method); type: in vivo, guinea pig (male albino); conditions: Cavia porcellus, guinea pig, weighted scores 1.0-2.5 h after UV, dose which provides 50% inhibition
Procedure: The compounds of the present invention were evaluated for anti-inflammatoryactivity by the ultraviolet-induced erythema blocking test. The test procedures were a modification of the Winder method (Winder, C. V.; Wax, J.; Burr, V.; Been, M.; and Posiere, C. E.: A Study of Pharmacological Influences on Ultraviolet Erythema in Guinea Pigs. Arch. Int. Pharmacodyn. 116: 261, 1958). Male albino guinea pigs weighing 240-300 gm. were used. The hair on the back was clipped and chemically depilated 15-18 hours before each experiment. The animals were fasted overnight, and on the day of the experiment, were randomized and placed in clear plastic partitioned holders 10×20 cm. wide and 15 cm. high.
The compounds to be tested were suspended in 1% methyl cellulose in water, utilizing a tissue homogenizer. The suspensions were administered orally in a volume of 2.0 ml./kg. of body weight. Control animals received an equal amount of the vehicle.
The source of ultraviolet light was a Hanovia lamp (Kromayer-Model 10). A notebook reinforcement ring was placed upon the lens of the lamp to provide an area of contrast for grading purposes. The lens was then placed in contact with the skin of the guinea pig's back. Exposure time to UV was for a period of 4 seconds. Beginning one hour after exposure and thereafter at half-hour intervals for another 11/2 hours, the degree of resulting erythema was graded by an arbitrary scoring system based upon the degree of contrast and redness formed. Anti-inflammatory agents delay the development of the erythema and have their greatest effect at the initial grading periods. The scores were, therefore, weighted by factors of 4, 3, 2, and 1 at the 1.0, 1.5, 2.0, and 2.5 hour scoring times, respectively. The erythema was graded as follows:
Total scores from each treatment group of four guinea pigs were compared to the scores of the control group. The percent inhibition was calculated as follows: [formula] In the case of compounds showing inhibition, retesting was carried out at a plurality of doses to enable calculation of an ED50 for each such compound. "ED50 " designates that dose which provides 50% inhibition. Calculation of the ED50 was either by a standard linear regression method or by estimation from a dose-response curve of three or more points. The compounds so tested and their ED50 s were as follows: […]

[4] = adjuvant-induced arthritis test (paw volume); type: in vivo, rat (male albino); conditions: rat, oral

| Compound | Estimated ED50 [1] [mg/kg] | inhibition in vivo at 50 mg/kg [2] [%] | ED50 [3] [mg/kg] | inhibition in vivo at 10 mg/kg [2] [%] | further results |
| --- | --- | --- | --- | --- | --- |
| C#Cc1cccc(-c2ccccc2)c1 [3-biphenylylacetylene, 3-Biphenylylacetylene] | 50 to 100 | 32 | 7 | – | – |
| C#Cc1ccc(-c2ccccc2)cc1OC [(2-methoxy-4-phenylphenyl)acetylene, (2-Methoxy-4-phenylphenyl)acetylene] | – | 51 | 39 | 7 | inhibition in vivo at 1 mg/kg ([2]; 1 mg./kg.): 25% |
| C#Cc1ccc(OCCCC)cc1C [(2-methyl-4-n-butoxyphenyl)acetylene, (2-Methyl-4-n-butoxyphenyl)acetylene] | – | – | 35 | – | inhibition in vivo at 25 mg/kg [2]: 9% |
| C#Cc1ccc(Oc2ccccc2)cc1C [(2-methyl-4-phenoxyphenyl)acetylene, (2-Methyl-4-phenoxyphenyl)acetylene] | < 100 | – | 8 | – | inhibition in vivo at 25 mg/kg [2]: 33% |
| C#Cc1ccc(-c2ccccc2)cc1C [(2-methyl-4-phenylphenyl)acetylene] | 60 | – | 20 | – | – |
| C#Cc1cc(C)c(Oc2ccccc2)c(C)c1 [(3,5-dimethyl-4-phenoxyphenyl)acetylene, (3,5-Dimethyl-4-phenoxyphenyl)acetylene] | < 100 | 29 | 11 | – | – |
| C#Cc1cccc(Oc2ccccc2F)c1 [(3-(2-fluorophenoxy)phenyl)acetylene, (3-(2-Fluorophenoxy)phenyl)acetylene] | – | 32 | 12 | – | – |
| C#Cc1ccc(C2CCCCC2)c(Cl)c1 [(3-chloro-4-cyclohexylphenyl)acetylene, (3-Chloro-4-cyclohexylphenyl)acetylene] | < 100 | – | 1 | – | – |
| C#Cc1ccc(-c2ccccc2)c(Cl)c1 [(3-chloro-4-phenylphenyl)acetylene, (3-Chloro-4-phenylphenyl)acetylene] | 30 | – | 0.033 | 62 | inhibition in vivo at 0.3 mg/kg ([2]; 0.3 mg./kg.): 23%; inhibition in vivo at 3 mg/kg [2]: 41%; Percent Inhibition of Volume Increase, Day 7 ([4]; dose 0.1 (unit not given)): 21%; Percent Inhibition of Volume Increase, Day 14 ([4]; dose 0.1 (unit not given)): 36%; Percent Inhibition of Volume Increase, Day 7 ([4]; dose 0.3 (unit not given)): 56%; Percent Inhibition of Volume Increase, Day 14 ([4]; dose 0.3 (unit not given)): 50%; Percent Inhibition of Volume Increase, Day 7 ([4]; dose 1 (unit not given)): 34%; Percent Inhibition of Volume Increase, Day 14 ([4]; dose 1 (unit not given)): 41%; Percent Inhibition of Volume Increase, Day 7 ([4]; dose 3 (unit not given)): 30%; Percent Inhibition of Volume Increase, Day 14 ([4]; dose 3 (unit not given)): 45% |
| C#Cc1ccc(-c2ccccc2)c(F)c1 [(3-fluoro-4-phenylphenyl)acetylene, (3-Fluoro-4-phenylphenyl)acetylene] | 10 | – | 0.5 | – | – |
| C#Cc1ccc(-c2ccccc2)c(OC)c1 [(3-methoxy-4-phenylphenyl)acetylene, (3-Methoxy-4-phenylphenyl)acetylene] | – | – | 0.6 | – | – |
| C#Cc1ccc(Oc2ccccc2)c(C)c1 [(3-methyl-4-phenoxyphenyl)acetylene, (3-Methyl-4-phenoxyphenyl)acetylene] | < 100 | – | 10 | 16 | – |
| C#Cc1ccc(-c2ccccc2)c(C)c1 [(3-methyl-4-phenylphenyl)acetylene, (3-Methyl-4-phenylphenyl)acetylene] | 50 | 66 | 0.09 | 56 | inhibition in vivo at 3 mg/kg [2]: 37%; inhibition in vivo at 30 mg/kg [2]: 56% |
| C#Cc1cccc(Oc2ccccc2)c1 [(3-phenoxyphenyl)acetylene, (3-Phenoxyphenyl)acetylene] | < 100 | – | 13 | 7 | – |
| C#Cc1ccc(-c2ccc(F)cc2F)cc1 [(4-(2,4-difluorophenyl)phenyl)acetylene, (4-(2,4-Difluorophenyl)phenyl)acetylene] | 4 | – | 4 | – | inhibition in vivo at 25 mg/kg [2]: 31% |
| C#Cc1ccc(-c2cc(F)ccc2F)cc1 [(4-(2,5-difluorophenyl)phenyl)acetylene, (4-(2,5-Difluorophenyl)phenyl)acetylene] | 10 | – | 4.4 | – | inhibition in vivo at 25 mg/kg [2]: 43% |
| C#Cc1ccc(-c2c(F)cccc2F)cc1 [(4-(2,6-difluorophenyl)phenyl)acetylene, (4-(2,6-Difluorophenyl)phenyl)acetylene] | < 100 | 49 | 12 | 34 | inhibition in vivo at 3 mg/kg [2]: 7%; inhibition in vivo at 30 mg/kg [2]: 37% |
| C#Cc1ccc(-c2ccccc2Cl)cc1 [(4-(2-chlorophenyl)phenyl)acetylene, (4-(2-Chlorophenyl)phenyl)acetylene] | 20 to 100 | 52 | 0.8 | – | – |
| C#Cc1ccc(Oc2ccccc2F)cc1 [(4-(2-fluorophenoxy)phenyl)acetylene, (4-(2-Fluorophenoxy)phenyl)acetylene] | < 100 | – | 16.5 | 45 | inhibition in vivo at 3 mg/kg [2]: 28%; inhibition in vivo at 30 mg/kg [2]: 68% |
| C#Cc1ccc(-c2cccc(F)c2)cc1 [(4-(3-fluorophenyl)phenyl)acetylene, (4-(3-Fluorophenyl)phenyl)acetylene] | 35 | – | 3 | 17 | – |
| C#Cc1ccc(-c2ccccc2C)cc1 [(4-(o-tolyl)phenyl)acetylene, (4-(o-Tolyl)phenyl)acetylene] | 35 | 48 | 0.9 | 6 | inhibition in vivo at 3 mg/kg [2]: 16%; inhibition in vivo at 30 mg/kg [2]: 53% |
| C#Cc1ccc(F)c(-c2ccccc2F)c1 [(4-Fluoro-3-(2-fluorophenyl)phenyl)acetylene] | – | 45 | 23 | 23 | inhibition in vivo at 3 mg/kg [2]: 13%; inhibition in vivo at 30 mg/kg [2]: 43% |
| (2-(2,5-difluorophenyl)phenyl)acetylene | – | – | – | – | Percent Inhibition of Volume Increase, Day 7 ([4]; dose 25 (unit not given)): 38%; Percent Inhibition of Volume Increase, Day 14 ([4]; dose 25 (unit not given)): 15% |
